From ChEMBL document CHEMBL1156554, “Aminoquinazolines as TRPV1 antagonists: modulation of drug-like properties through the exploration of 2-position substitution” (Bioorg Med Chem Lett, 2008) come the findings set out here.

Each structure is given as a SMILES string.

Data set [1] in a line: Bioavailability in rat at 2.0 mg/kg, po dosed in 0.5% methylcellulose, 0.1% triacetin. In kind it is ADME, organism-based. The conditions noted are these: in vivo.
Data set [2] in a line: Tmax in rat at 2.0 mg/kg, po dosed in 0.5% methylcellulose, 0.1% triacetin. Type of data set: ADME, organism-based. More on the design: dose 2 mg/kg, route oral. The conditions noted are these: in vivo.
A short description of data set [3]: Dissociation constant, pKa of the compound. In kind it is physicochemical.
Data set [4] is described as follows: Volume of distribution at steady state in rat at 1.0 mg/kg, iv dosed in 50% PEG-400/water. Type of data set: ADME, organism-based. More on the design: dose 1 mg/kg, route intravenous. The settings on record: in vivo, read-out: Vdss.
The nature of data set [5]: Clearance in rat at 1.0 mg/kg, iv dosed in 50% PEG-400/water. Type of data set: ADME, organism-based. More on the design: dose 1 mg/kg, route intravenous. The settings on record: in vivo.
Data set [6] can be described thus: Ratio of drug level in brain to plasma in rat at 3 mg/kg, po after 4 hrs. In kind it is ADME, organism-based. On the set-up: dose 3 mg/kg, route oral.
Data set [7] in a line: Half life in rat at 1.0 mg/kg, iv dosed in 50% PEG-400/water. Type of data set: ADME, organism-based. More on the design: dose 1 mg/kg, route intravenous. The settings on record: in vivo.
Data set [8] can be described thus: AUC (0 to infinity) in rat at 2.0 mg/kg, po dosed in 0.5% methylcellulose, 0.1% triacetin. Type of data set: ADME, organism-based. On the set-up: time infinity, dose 2 mg/kg, route oral. The settings on record: in vivo.
The nature of data set [9]: Cmax in rat at 2.0 mg/kg, po dosed in 0.5% methylcellulose, 0.1% triacetin. In kind it is ADME, organism-based. On the set-up: dose 2 mg/kg, route oral. The conditions noted are these: in vivo.
Data set [10] concerns Liver microsomes. Kind of data set: Metabolic stability in rat liver microsomes at 1 uM. In kind it is ADME, Microsome.
The test system of data set [11] is Liver microsomes. The data set is described as follows: Metabolic stability in human liver microsomes at 1 uM. In kind it is ADME, Microsome.
The nature of data set [12]: Tmax in rat at 2.0 mg/kg, po dosed in 2% D-alpha-tocopheryl polyethylene glycol 1000 succinate. On the set-up: dose 2 mg/kg, route oral. Type of data set: ADME, organism-based. The settings on record: in vivo.
A short description of data set [13]: Half life in rat at 2.7 mg/kg, iv dosed in 50% PEG-400/water. Type of data set: ADME, organism-based. More on the design: dose 2.7 mg/kg, route intravenous. The settings on record: in vivo.
The nature of data set [14]: Volume of distribution at steady state in rat at 2.7 mg/kg, iv dosed in 50% PEG-400/water. In kind it is ADME, organism-based. On the set-up: dose 2.7 mg/kg, route intravenous. The settings on record: in vivo, read-out: Vdss.
The nature of data set [15]: Cmax in rat at 2.0 mg/kg, po dosed in 2% D-alpha-tocopheryl polyethylene glycol 1000 succinate. In kind it is ADME, organism-based. The conditions noted are these: in vivo. More on the design: dose 2 mg/kg, route oral.
In data set [16] the test system is Rattus norvegicus. Kind of data set: (§1) Bioavailability in rat at 2.0 mg/kg, po dosed in 2% D-alpha-tocopheryl polyethylene glycol 1000 succinate. In kind it is ADME, organism-based. The conditions noted are these: in vivo.
The nature of data set [17]: Clearance in rat at 2.7 mg/kg, iv dosed in 50% PEG-400/water. Type of data set: ADME, organism-based. On the set-up: dose 2.7 mg/kg, route intravenous. The conditions noted are these: in vivo.
Data set [18] is described as follows: AUC (0 to infinity) in rat at 2.0 mg/kg, po dosed in 2% D-alpha-tocopheryl polyethylene glycol 1000 succinate. Type of data set: ADME, organism-based. On the set-up: dose 2 mg/kg, route oral, time infinity. The conditions noted are these: plasma.
Data set [19] is described as follows: AUC (0 to infinity) in rat at […], po dosed in 0.5% methylcellulose, 0.1% triacetin. On the set-up: time infinity, dose 2.1 mg/kg, route oral. The settings on record: in vivo. In kind it is ADME, organism-based.
A short description of data set [20]: Half life in rat at […], iv dosed in 50% PEG-400/water. Type of data set: ADME, organism-based. The conditions noted are these: in vivo. On the set-up: dose 1.5 mg/kg, route intravenous.
Data set [21] in a line: as §1. The conditions noted are these: in vivo. In kind it is ADME, organism-based.
The nature of data set [22]: Volume of distribution at steady state in rat at […], iv dosed in 50% PEG-400/water. Type of data set: ADME, organism-based. More on the design: dose 1.5 mg/kg, route intravenous. The conditions noted are these: in vivo, read-out: Vdss.
The nature of data set [23]: Cmax in rat at […], po dosed in 0.5% methylcellulose, 0.1% triacetin. In kind it is ADME, organism-based. More on the design: dose 2.1 mg/kg, route oral. The conditions noted are these: in vivo.
Data set [24] is described as follows: Bioavailability in rat at […], po dosed in 0.5% methylcellulose, 0.1% triacetin. Type of data set: ADME, organism-based. The conditions noted are these: in vivo.
Data set [25] is described as follows: Tmax in rat at […], po dosed in 0.5% methylcellulose, 0.1% triacetin. The settings on record: in vivo. Type of data set: ADME, organism-based. On the set-up: dose 2.1 mg/kg, route oral.
The nature of data set [26]: Clearance in rat at […], iv dosed in 50% PEG-400/water. Type of data set: ADME, organism-based. On the set-up: dose 1.5 mg/kg, route intravenous. The settings on record: in vivo.
A short description of data set [27]: Chemical stability in 0.1 N HCl after 4 hrs. Type of data set: physicochemical. The settings on record: read-out: Activity.

The bioavailability is dose-corrected exposure relative to a reference, in per cent. High values mean much systemic uptake, low ones little systemic uptake. A word on the Tmax: it is the time from dosing to the highest level. In general, pKa refers to the pH at which an ionisable group is half protonated. Read a low pKa as a group that gives up its proton readily. By clearance is commonly meant the volume of plasma or blood freed of the substance per unit of time. As a reminder, the Kp is tissue or fluid exposure divided by exposure in the circulation. For orientation: half-life means the time in which the quantity being followed falls by half. Usually AUC(0-inf) stands for total exposure, with the tail of the curve extrapolated. A lower AUC(0-inf) goes with less exposure. As usually defined, the Cmax is the maximum level reached in the sampled fluid or tissue.

In data set [1], `COCc1nc(Nc2ccc(C(F)(F)F)cc2)c2ccc(-c3ncccc3C(F)(F)F)cc2n1` showed a bioavailability of 50%. The Tmax in data set [2] was determined as 3.7 h. In data set [3], this compound yielded a pKa of 3.7. For the same compound, in [4], the Vd is 3.5 L/kg. This compound also came in with a clearance in [5] of 5.3 mL/min/kg. In addition, the concentration ratio (Kp) at 4 h in [6] is 1.8. The compound further gave a half-life in [7] of 6.9 h. In data set [8], this compound displayed an AUC(0-inf) of 3250 ng·h/mL. The peak level in [9] (Cmax) was 215 ng/mL.

`CCOCc1nc(Nc2ccc(C(F)(F)F)nc2)c2ccc(-c3ncccc3C(F)(F)F)cc2n1`: the Stability entry in data set [10] and in data set [11] was “Stable” each time.

Consider `CC1CN(Cc2nc(Nc3ccc(C(F)(F)F)cc3)c3ccc(-c4ncccc4C(F)(F)F)cc3n2)CC(C)O1` (stereo not drawn), for which the pKa in data set [3] was 7.51.

`FC(F)(F)c1ccc(Nc2ncnc3cc(-c4ncccc4C(F)(F)F)ccc23)cc1` [NGD-8243] had a bioavailability in data set [1] of 8%. The Tmax in data set [12] was found to be 0.67 h; in data set [2] it was 3 h. For the same compound, in [13], the half-life was 8 h. The Vd in [14] turned out to be 13 L/kg. The Cmax in data set [15] worked out at 101 ng/mL; in [9], 13 ng/mL. The same compound yielded a F in data set [16] of 99%. Also, in data set [3], the pKa came out at 4.54. In data set [17], this compound registered a clearance of 23 mL/min/kg. Besides, the AUC(0-inf) was 1430 ng·h/mL in data set [18] and 121 ng·h/mL in data set [8].

Turning to `C[C@@H]1CN(Cc2nc(Nc3ccc(C(F)(F)F)nc3)c3ccc(-c4ncccc4C(F)(F)F)cc3n2)C[C@H](C)O1`, the Tmax in [2] came out at 0.9 h. For the same compound, the AUC(0-inf) in data set [8] was 218 ng·h/mL. The Cmax in [9] stood at 93 ng/mL.

Turning to `FC(F)(F)c1ccc(Nc2ncnc3cc(-c4ncccc4C(F)(F)F)ccc23)cn1`, the Tmax in data set [12] was 1.7 h; in data set [25] it was 1.8 h. For the same compound, the AUC(0-inf) was found to be 982 ng·h/mL in data set [19] and 1450 ng·h/mL in [18]. The half-life in [20] is 4.2 h. The Stability result in data set [10] and in data set [11] was “Stable” throughout. The Cmax worked out at 211 ng/mL in [15] and 137 ng/mL in [23]. Also, the bioavailability in data set [21] worked out at 94%; in data set [24], 61%. The compound also displayed a pKa in data set [3] of 3.48. In data set [22], the Vd stood at 5.5 L/kg. The same compound returned a clearance in data set [26] of 22 mL/min/kg.

As to `FC(F)(F)c1ccc(Nc2nc(CN3CCOCC3)nc3cc(-c4ncccc4C(F)(F)F)ccc23)nc1`, the Stability entry in [10] and in data set [11] was “Stable” throughout.

Consider `CC(C)OCc1nc(Nc2ccc(C(F)(F)F)nc2)c2ccc(-c3ncccc3C(F)(F)F)cc2n1`, for which the Stability result in [10] and in [11] was “Stable” throughout.

Compound `CN1CCN(Cc2nc(Nc3ccc(C(F)(F)F)cc3)c3ccc(-c4ncccc4C(F)(F)F)cc3n2)CC1` registered a pKa in data set [3] of 7.68.

As for `FC(F)(F)c1ccc(Nc2nc(CCCN3CCOCC3)nc3cc(-c4ncccc4C(F)(F)F)ccc23)cc1`, in [3], the pKa is 7.86.

`FC(F)(F)c1ccc(Nc2ncnc3cc(-c4ncccc4C(F)(F)F)ccc23)nc1` came in with a bioavailability in [1] of 89%. The Tmax in [2] is 5.7 h. The compound further showed a half-life in data set [20] of 38 h. Moreover, the Stability result in [10] and in [11] was “Stable” each time. For the same compound, the pKa in [3] is 3.26. In addition, in data set [22], the Vd amounted to 12 L/kg. The AUC(0-inf) in data set [8] was determined as 7620 ng·h/mL. Moreover, in data set [27], the remaining at 4 h turned out to be 57%. For the same compound, in data set [9], the Cmax amounted to 137 ng/mL. The compound further yielded a clearance in [26] of 4.2 mL/min/kg.
